biological target: Polymerase acidic protein (Influenza A virus (A/Puerto Rico/8/1934(H1N1)), UniProt P03433); assay: Inhibition of cap 1 ALMV primed Influenza transcriptase

Row | SMILES | IC50 [µM]
1 | O=C(O)/C(O)=C/C(=O)C1CCCCC1 | 29.4
2 | O=C(O)/C(O)=C/C(=O)C1(Cc2ccc(Cl)cc2)CCCN(S(=O)(=O)Cc2ccccc2)C1 (stereo not drawn) | 0.19
3 | CC(=O)/C=C(\O)C(=O)O | 307
4 | Cn1c(/C=C(\O)C(=O)O)nc2ccccc21 | > 500
5 | NC(=O)/C(O)=C/C(=O)C1CCCCC1 | > 500
6 | O=C(O)/C(O)=C/c1cc2ccccc2o1 | > 500
7 | O=C(O)/C(O)=C/c1nc2ccccc2o1 | 100
8 | NC(CC(=O)c1ccccc1)C(=O)O (stereo not drawn) | > 500
9 | O=C(O)C(=O)CCc1ccccc1 | > 500
10 | O=C(O)/C(O)=C/S(=O)(=O)c1ccccc1 | > 500
11 | CC(C)C(=O)/C=C(\O)C(=O)O | 56.7
12 | O=C(CC(O)C(=O)O)c1ccccc1 (stereo not drawn) | > 500
13 | O=C(O)/C(O)=C/c1nc2ccccc2s1 | > 500

Reference: ChEMBL document CHEMBL2040549, “Inhibition of cap (m7GpppXm)-dependent endonuclease of influenza virus by 4-substituted 2,4-dioxobutanoic acid compounds” (Antimicrob Agents Chemother, 1994)
